# Test results: patent US20260374766A1, “METHODS FOR TREATING CANCER” (Antares Therapeutics, Inc., priority 2022, published 2026)
# Where two headings read alike, the source gives them in different places.
# Assays:
# [1] = biological target: T1, p53 Y220C mutant protein (amino acid residues 94-293) (Homo sapiens, UniProt P04637, Y220C); experiment: Thermal Shift Assay (TSA), dTM; format: binding; conditions: for ΔTm at 100 µM: 100 uM compound, read-out: TSA P53 Y220C dTM (100 uM); for ΔTm at 10 µM: 10 uM compound
# T1 construct: p53 Y220C mutant protein (amino acid residues 94-293)
# Protocol: Thermal Shift Assay (TSA) Protocol
# 5 μM recombinant p53 Y220C mutant protein (amino acid residues 94-293) was incubated with 10 μM or 100 μM compound for 3 hours at 20 °C in buffer containing 20 mM HEPES, pH7.4, 100 mM NaCl, 0.01% Pluronic F-127, and 1% DMSO in the presence of 400-fold diluted Sypro Orange (ThermoFisher Scientific catalog number 4461146), on a 384-well PCR plate (Applied Biosystems catalog number 4483285). The volume was 5 μL/well. The sealed plate was then loaded onto a QuantStudio 7 Flex instrument for melting temperature (TM) measurement. The temperature was increased from 30 °C to […], at a rate of 0.03 °C/second. Data were fit into a Boltzmann two-state model to determine the TM.
# [2] = biological target: T1, p53 Y220C mutant protein (amino acid residues 94-293); experiment: Surface Plasmon Resonance (SPR) assay, Kd_kinetic; format: binding; conditions: SPR, p53 Y220C, read-out: SPR P53 Y220C KD kinetic
# Procedure, shortened: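 Binding measured by SPR on a Biacore 8K in running buffer of 50 mM Tris pH 7.5, 100 mM NaCl, 1 mM DTT, 0.01% Brij35, 0.05% Tween-20, 1% DMSO.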
# p53 Y220C = p53 Y220C (Homo sapiens, UniProt P04637, Y220C); experiment: Luciferase Reporter Assay (Luc), p53 response element, NClH1299 cells with inducible p53 Y220C; format: cell-based; conditions: 6 hour; for AC50: read-out: Luc P53 Y220C AC50
# Procedure, shortened: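 Luciferase activity is measured directly after One-Glo addition and a 5-minute room-temperature shake. Before that, cells plated at 5,000 per well receive doxycycline at 0.5 ug/mL for 24 hours, followed by compound for 6 hours.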
# H1299 p53 Y220C = experiment: Cell Proliferation Assay (CellTiter-Glo, CTG), H1299 p53 Y220C (NClH1299-inducible p53 Y220C); format: cell-based; conditions: Homo sapiens, NCI-H1299, 120 h, 5 days
# Procedure, shortened: (§1)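 Cells seeded at 250-500 per well and exposed to compound for 5 days. Viability read by CellTiter-Glo luminescence after 10 min at room temperature; IC50 calculated. H1299 lines carry Tet-One inducible p53 mutant constructs introduced by lentiviral transduction.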
# H1299 p53 R273H = experiment: Cell Proliferation Assay (CellTiter-Glo, CTG), H1299 p53 R273H (NClH1299-inducible p53 R273H); format: cell-based; conditions: Homo sapiens, NCI-H1299, 120 h, 5 days
# Procedure, shortened: as §1
# NUGC3 p53 Y220C = experiment: Cell Proliferation Assay (CellTiter-Glo, CTG), NUGC3 p53 Y220C; format: cell-based; conditions: Homo sapiens, NUGC-3, 120 h, 5 days
# Procedure, shortened: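 NClH1299 lines stably transduced with Tet-inducible p53 Y220C or R273H, plus NUGC3, were treated with compound for 5 days at 250-500 cells/well. IC50 derived from CellTiter-Glo luminescent signal after 10 min room-temperature incubation.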
# [3] = AC50, NClH1299 cells with inducible p53 Y220C
# [4] = Emax, NClH1299 cells with inducible p53 Y220C, 10 uM tool compound as positive control
# [5] = NClH1299-inducible p53 Y220C cells
# [6] = luciferase reporter, NClH1299 inducible p53 Y220C, 10 uM tool compound as positive control
# [7] = luciferase reporter, NClH1299 inducible p53 Y220C
# [8] = AC50, luciferase reporter, NClH1299 inducible p53 Y220C
# [9] = Emax, luciferase reporter, NClH1299 inducible p53 Y220C
# [10] = NClH1299-inducible p53 Y220C cells, CellTiter-Glo
# [11] = NClH1299-inducible p53 R273H cells
# [12] = NClH1299-inducible p53 R273H cells, CellTiter-Glo
structure (smiles),measurement,setting,value
"C=Cc1c(C#CC)nc2c(NC3CCN(C)CC3)cccn12 [Example 21, N-[3-ethenyl-2-(prop-1-yn-1-yl)imidazo[1,2-a]pyridin-8-yl]-1-methylpiperidin-4-amine]",ΔTm at 100 µM,[1]; thermal shift,1 to 5 °C
"[2H]C([2H])([2H])N1CC[C@@H](Nc2cccn3c(SC(F)(F)F)c(C#CCNc4ccc(C(=O)NC)cc4OC)nc23)[C@@H](F)C1 [Example 476, 4-((3-(8-(((3S,4R)-3-fluoro-1-(methyl-d3)piperidin-4-yl)amino)-3-((trifluoromethyl)thio)imidazo[1,2-a]pyridin-2-yl)prop-2-yn-1-yl)amino)-3-methoxy-N-methylbenzamide]",Kd,[2],< 10 nM
same,AC50,p53 Y220C; [3],< 750 nM
same,Emax,p53 Y220C; [4],> 90%
same,IC50,H1299 p53 Y220C; [5],< 750 nM
same,ΔTm at 10 µM,[1]; read-out: TSA P53 Y220C dTM,≥ 10 °C
CNC(=O)c1ccc(NCC#Cc2nc3c(N[C@@H]4CCN(CC(C)(C)O)C[C@@H]4F)cccn3c2SC(F)(F)F)c(OC)c1 [Example 164],Kd,[2]; kinetic KD,< 10 nM
same,Emax,p53 Y220C; [6],80 to 90%
same,AC50,p53 Y220C; [7],< 750 nM
same,IC50,"H1299 p53 Y220C; CellTiter-Glo, H1299 p53 Y220C",< 750 nM
same,ΔTm at 10 µM,"[1]; thermal shift, read-out: TSA P53 Y220C dTM (10 uM)",≥ 10 °C
"CC#Cc1nc2c(NC3CCN(C)CC3)cccn2c1CC(F)(F)F [Example 19, 1-methyl-N-[2-(prop-1-yn-1-yl)-3-(2,2,2-trifluoroethyl)imidazo[1,2-a]pyridin-8-yl]piperidin-4-amine]",Kd,[2]; kinetic KD,100 to 1000 nM
same,Emax,p53 Y220C; [6],< 70%
same,AC50,p53 Y220C; [7],> 3000 nM
same,IC50,"H1299 p53 Y220C; CellTiter-Glo, H1299 p53 Y220C",> 3000 nM
same,IC50,"H1299 p53 R273H; CellTiter-Glo, H1299 p53 R273H",≥ 10000 nM
same,ΔTm at 100 µM,[1]; thermal shift,5 to 10 °C
"CC#Cc1nc2c(N[C@@H]3CCN(C)C[C@@H]3F)cccn2c1CC(F)(F)F [Example 18, (3S,4R)-3-fluoro-1-methyl-N-[2-(prop-1-yn-1-yl)-3-(2,2,2-trifluoroethyl)imidazo[1,2-a]pyridin-8-yl]piperidin-4-amine]",Kd,[2]; kinetic KD,10 to 100 nM
same,Emax,p53 Y220C; [6],< 70%
same,AC50,p53 Y220C; [7],> 3000 nM
same,IC50,"H1299 p53 Y220C; CellTiter-Glo, H1299 p53 Y220C",> 3000 nM
same,IC50,"H1299 p53 R273H; CellTiter-Glo, H1299 p53 R273H",≥ 10000 nM
same,ΔTm at 100 µM,[1]; thermal shift,5 to 10 °C
CNC(=O)c1cnc(OC)c(NCC#Cc2nc3c(N[C@@H]4C[C@H]5CC[C@@H]([C@@H]4F)N5C)cccn3c2SC(F)(F)F)c1 [Example 265],Kd,[2],< 10 nM
same,AC50,p53 Y220C; [8],< 750 nM
same,Emax,p53 Y220C; [9],> 90%
same,IC50,H1299 p53 Y220C; [10],< 750 nM
same,ΔTm at 10 µM,"[1]; p53 Y220C, read-out: TSA P53 Y220C dTM",≥ 10 °C
"COc1cc(S(C)(=O)=O)ccc1NCC#Cc1nc2c(NC3CCN(C)CC3)cc(NC(=O)OC(C)(C)C)cn2c1CC(F)(F)F [Example 31, tert-butyl N-(2-{3-[(4-methanesulfonyl-2-methoxyphenyl)amino]prop-1-yn-1-yl}-8-[(1-methylpiperidin-4-yl)amino]-3-(2,2,2-trifluoroethyl)imidazo[1,2-a]pyridin-6-yl) carbamate]",ΔTm at 100 µM,[1]; thermal shift,1 to 5 °C
COc1ccc(C(=O)N[C@H](C)[C@@H](C)O)cc1NCC#Cc1cc2c(N[C@@H]3CCN(C)C[C@@H]3F)cccn2c1SC(F)(F)F [Example 473],IC50,NUGC3 p53 Y220C; NUGC3 cells,< 750 nM
same,Kd,[2],< 10 nM
same,AC50,p53 Y220C; [3],< 750 nM
same,Emax,p53 Y220C; [4],> 90%
same,IC50,H1299 p53 Y220C; [5],< 750 nM
same,IC50,H1299 p53 R273H; [11],≥ 10000 nM
O=C(NC[C@H]1COCCO1)c1ccc(NCC#Cc2cc3c(N[C@@H]4CCNC[C@@H]4F)cccn3c2SC(F)(F)F)cc1 [Example 369],IC50,"NUGC3 p53 Y220C; NUGC3 cells, CellTiter-Glo",< 750 nM
same,Kd,[2],< 10 nM
same,AC50,p53 Y220C; [8],< 750 nM
same,Emax,p53 Y220C; [9],> 90%
same,IC50,H1299 p53 Y220C; [10],< 750 nM
same,IC50,H1299 p53 R273H; [12],5000 to 8000 nM
C[C@H](O)[C@@H](C)NC(=O)c1ccc(NCC#Cc2cc3c(N[C@@H]4CCN(C)C[C@@H]4F)cccn3c2SC(F)(F)F)cc1 [Example 376],IC50,"NUGC3 p53 Y220C; NUGC3 cells, CellTiter-Glo",< 750 nM
same,Kd,[2],< 10 nM
same,AC50,p53 Y220C; [8],< 750 nM
same,Emax,p53 Y220C; [9],> 90%
same,IC50,H1299 p53 Y220C; [10],< 750 nM
same,IC50,H1299 p53 R273H; [12],≥ 10000 nM
CNC(=O)c1ccc(OC)c(NCC#Cc2cc3c(N[C@@H]4CN(C)C[C@@H]4F)nccn3c2SC(F)(F)F)c1 [Example 208],IC50,"NUGC3 p53 Y220C; CellTiter-Glo, NUGC3 p53 Y220C",< 750 nM
same,Kd,[2]; kinetic KD,< 10 nM
same,Emax,p53 Y220C; [6],> 90%
same,AC50,p53 Y220C; [7],< 750 nM
same,IC50,"H1299 p53 Y220C; CellTiter-Glo, H1299 p53 Y220C",< 750 nM
same,IC50,"H1299 p53 R273H; CellTiter-Glo, H1299 p53 R273H",≥ 10000 nM
COc1cc([S@@+](C)[O-])ccc1NCC#Cc1cc2c(N[C@@H]3CCN(C)C[C@@H]3F)cccn2c1SC(F)(F)F [Example 423],IC50,"NUGC3 p53 Y220C; NUGC3 cells, CellTiter-Glo",< 750 nM
same,Kd,[2],< 10 nM
same,AC50,p53 Y220C; [8],< 750 nM
same,Emax,p53 Y220C; [9],> 90%
same,IC50,H1299 p53 Y220C; [10],< 750 nM
same,IC50,H1299 p53 R273H; [12],8000 to 10000 nM
O=C(N[C@H]1C[C@H](O)C1)c1ccc(NCC#Cc2cc3c(N[C@@H]4CCNC[C@@H]4F)cccn3c2SC(F)(F)F)cc1 [Example 373],IC50,"NUGC3 p53 Y220C; NUGC3 cells, CellTiter-Glo",< 750 nM
same,Kd,[2],< 10 nM
same,AC50,p53 Y220C; [8],< 750 nM
same,Emax,p53 Y220C; [9],80 to 90%
same,IC50,H1299 p53 Y220C; [10],< 750 nM
same,IC50,H1299 p53 R273H; [12],≥ 10000 nM
COc1cc(C(=O)O)ccc1NCC#Cc1cc2c(N[C@@H]3CCN(C)C[C@@H]3F)cccn2c1SC(F)(F)F [Example 451],IC50,"NUGC3 p53 Y220C; NUGC3 cells, CellTiter-Glo",< 750 nM
same,Kd,[2],< 10 nM
same,AC50,p53 Y220C; [8],< 750 nM
same,Emax,p53 Y220C; [9],> 90%
same,IC50,H1299 p53 Y220C; [10],< 750 nM
same,IC50,H1299 p53 R273H; [12],≥ 10000 nM
CNC(=O)c1ccc(NCC#Cc2cc3c(N[C@@H]4CCNC[C@@H]4F)cccn3c2SC(F)(F)F)c(OC)n1 [Example 488],IC50,NUGC3 p53 Y220C; NUGC3 cells,< 750 nM
same,Kd,[2],< 10 nM
same,AC50,p53 Y220C; [3],< 750 nM
same,Emax,p53 Y220C; [4],> 90%
same,IC50,H1299 p53 Y220C; [5],< 750 nM
same,IC50,H1299 p53 R273H; [11],5000 to 8000 nM
C[C@H](O)CNC(=O)c1ccc(NCC#Cc2cc3c(N[C@@H]4CCN(C)C[C@@H]4F)cccn3c2SC(F)(F)F)cc1 [Example 431],IC50,"NUGC3 p53 Y220C; NUGC3 cells, CellTiter-Glo",< 750 nM
same,Kd,[2],< 10 nM
same,AC50,p53 Y220C; [8],< 750 nM
same,Emax,p53 Y220C; [9],> 90%
same,IC50,H1299 p53 Y220C; [10],< 750 nM
same,IC50,H1299 p53 R273H; [12],≥ 10000 nM
COc1ccc(C(=O)N[C@H](C)[C@H](C)O)cc1NCC#Cc1cc2c(N[C@@H]3CCN(C)C[C@@H]3F)cccn2c1SC(F)(F)F [Example 468],IC50,NUGC3 p53 Y220C; NUGC3 cells,< 750 nM
same,Kd,[2],< 10 nM
same,AC50,p53 Y220C; [3],< 750 nM
same,Emax,p53 Y220C; [4],> 90%
same,IC50,H1299 p53 Y220C; [5],< 750 nM
same,IC50,H1299 p53 R273H; [11],8000 to 10000 nM
